Measured values: ChEMBL document CHEMBL5375988, “AcGlcAs: A Novel P53-Targeting Arsenical with Potent Cellular Uptake and Cancer Cell Selectivity” (J Med Chem, 2023)
Calls of active or inactive are those of the source. No cut-off for these calls is given here.

Tests used:
[1] = Drug uptake in human HepG2 cells assessed as arsenic localization in cytoplasm at 10 uM incubated for 1 hr by ICP-MS analysis; assay type: ADME, cell-based; details: hepg2, 1 h
U-937 [2] = assay: Induction of senescence in human U-937 cells overexpressing p53-V272M mutant assessed as upregulation of PML gene expression by RT-qPCR analysis; assay type: functional, cell-based
[3] = tested on: Cellular tumor antigen p53 (Homo sapiens), P04637 [V272M]; assay: Restoration of p53-V272M mutant transcriptional activity on PUMA promoter in human NCI-H1299 cells harboring siRNA-mediated CLIC1 knockdown incubated for 24 hrs by firefly/renilla based luciferase reporter assay; assay type: cell-based
[4] = tested on: Cellular tumor antigen p53 (Homo sapiens), P04637 [V272M]; assay: Restoration of p53-V272M mutant transcriptional activity on PUMA promoter in human NCI-H1299 cells harboring siRNA-mediated CKAP4 knockdown incubated for 24 hrs by firefly/renilla based luciferase reporter assay; assay type: cell-based
U-937 [5] = assay: Antitumor activity against GFP-tagged human U-937 cells harboring p53 V272M mutant xenografted in M-NSG mouse assessed as appearance of smaller and lighter spleen at 25 mg/kg, ip administered for 9 days starting from 7 days post inoculation and measured on day 2 and 6; assay type: functional, organism-based; details: time 9.0 day
U-937 [6] = assay: Antitumor activity against GFP-tagged human U-937 cells harboring p53 V272M mutant xenografted in M-NSG mouse assessed as delay in spleen swelling at 25 mg/kg, ip administered for 9 days starting from 7 days post inoculation and measured on day 9 by FACS analysis; assay type: functional, organism-based; details: time 9.0 day
[7] = molecular target: T1, PML-RARalpha (Homo sapiens) (UniProt P10276+P29590); assay: Induction of PML/RARalpha degradation in human NB4 cells assessed as residual protein level at 3 uM incubated for 1 hrs followed by replacement with fresh culture medium and measured after 16 hrs by Western blot analysis (reference value: 1); assay type: cell-based
NB-4 = assay: Induction of apoptosis in human NB4 cells assessed as early apoptotic cells at 9 uM preincubated for 1 hrs followed by replacement with fresh culture medium and measured after 24 hrs by Annexin V-FITC/7AAD staining based flow cytometry assay (reference value: 2.15%); assay type: functional
[8] = molecular target: T1, PML-RARalpha (Homo sapiens); assay: Induction of PML/RARalpha degradation in human NB4 cells assessed as decrease in micropunctuates at 3 uM incubated for 1 hrs followed by replacement with fresh culture medium and measured after 0.5 to 24 hrs by immunofluorescence analysis; assay type: cell-based
NCI-H1299 [9] = assay: Inhibition of colony formation in human NCI-H1299 cells harboring p53-V272M mutant at 2 to 32 uM pretreated for 1 hr followed by culturing in fresh medium and measured on day 7 by crystal violet staining based assay; assay type: functional, cell-based; details: dose 2-32 µM
NCI-H1299 [10] = assay: Upregulation of p21 protein expression in human NCI-H1299 cells overexpressing p53-V272M mutant pretreated for 1 hr followed by culturing in fresh medium for 16 hrs by Western blot analysis; assay type: functional, cell-based
[11] = tested on: Cellular tumor antigen p53 (Homo sapiens), P04637 [V272M]; assay: Restoration of p53-V272M mutant transcriptional activity on PUMA promoter in human NCI-H1299 cells at 2.5 to 10 uM pretreated with methyl-beta-cyclodextrin for 30 mins followed by compound addition for 10 mins and further incubation in fresh medium for 24 hrs by firefly/renilla based luciferase reporter assay; assay type: cell-based; details: dose 2.5-10 µM
[12] = Drug accumulation in ICR mouse liver at 10 mg/kg, iv measured upto 24 hrs by ICP-MS analysis; assay type: ADME, organism-based; details: in vivo
U-937 [13] = assay: Induction of cell cycle arrest in human U-937 cells overexpressing p53-V272M mutant assessed as upregulation of BTG2 gene expression by RT-qPCR analysis; assay type: functional, cell-based

T1 sequence (P10276 whole entry, looked up): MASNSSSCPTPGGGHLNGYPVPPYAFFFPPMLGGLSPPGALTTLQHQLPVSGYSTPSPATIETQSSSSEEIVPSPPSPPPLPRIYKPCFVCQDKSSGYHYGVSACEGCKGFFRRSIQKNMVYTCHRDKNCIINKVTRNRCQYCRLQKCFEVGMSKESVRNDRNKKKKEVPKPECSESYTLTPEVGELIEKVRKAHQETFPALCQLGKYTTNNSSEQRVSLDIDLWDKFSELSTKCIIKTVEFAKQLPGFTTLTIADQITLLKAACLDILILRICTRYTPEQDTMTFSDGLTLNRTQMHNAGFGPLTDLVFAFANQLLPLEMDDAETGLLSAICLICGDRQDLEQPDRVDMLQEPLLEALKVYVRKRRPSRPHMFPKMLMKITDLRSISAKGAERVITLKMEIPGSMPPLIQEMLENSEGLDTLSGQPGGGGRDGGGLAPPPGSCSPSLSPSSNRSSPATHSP
T1 sequence (P29590 whole entry, looked up): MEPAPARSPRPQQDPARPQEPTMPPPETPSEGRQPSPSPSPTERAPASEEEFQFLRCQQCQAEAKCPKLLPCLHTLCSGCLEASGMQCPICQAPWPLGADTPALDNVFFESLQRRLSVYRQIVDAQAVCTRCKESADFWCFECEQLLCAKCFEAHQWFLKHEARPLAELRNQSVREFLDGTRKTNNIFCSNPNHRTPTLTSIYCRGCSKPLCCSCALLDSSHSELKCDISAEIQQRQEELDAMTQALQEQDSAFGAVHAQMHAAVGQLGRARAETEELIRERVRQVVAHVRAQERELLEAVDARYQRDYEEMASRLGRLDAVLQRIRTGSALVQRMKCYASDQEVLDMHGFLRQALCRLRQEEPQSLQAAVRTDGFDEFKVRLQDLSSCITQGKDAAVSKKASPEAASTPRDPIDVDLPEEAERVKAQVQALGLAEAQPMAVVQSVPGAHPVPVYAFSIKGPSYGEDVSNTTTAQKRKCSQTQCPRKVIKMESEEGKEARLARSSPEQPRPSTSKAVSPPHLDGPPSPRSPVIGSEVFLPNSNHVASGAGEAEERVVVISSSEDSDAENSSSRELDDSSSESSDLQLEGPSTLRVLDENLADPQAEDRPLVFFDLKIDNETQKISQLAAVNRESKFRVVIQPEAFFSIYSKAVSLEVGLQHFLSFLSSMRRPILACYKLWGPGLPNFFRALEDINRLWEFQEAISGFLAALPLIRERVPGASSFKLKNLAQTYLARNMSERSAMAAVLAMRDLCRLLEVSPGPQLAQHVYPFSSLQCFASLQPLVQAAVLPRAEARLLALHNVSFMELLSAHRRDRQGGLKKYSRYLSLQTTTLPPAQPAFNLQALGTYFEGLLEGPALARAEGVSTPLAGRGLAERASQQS

SMILES: CC(=O)OC[C@H]1O[C@@H](S[As]2SCCS2)[C@H](OC(C)=O)[C@@H](OC(C)=O)[C@@H]1OC(C)=O
- Drug uptake [1]: Active
- Activity (U-937 [2]): inactive
- Activity [3]: inactive
- Activity [4]: inactive
- Activity (U-937 [5]): Active
- Activity (U-937 [6]): Active
- Activity [7]: 0.18
- Activity (NB-4): 7.43%
- Activity [8]: Active
- inhibition (NCI-H1299 [9]): Active
- Activity (NCI-H1299 [10]): Active
- Activity [11]: inactive
- Drug uptake [12]: Active
- Activity (U-937 [13]): Active
